Assay results published in patent US12606805B2, “Tymovirus virus and virus-like particles as nanocarriers for imaging and therapeutic agents” (priority 2017, dated 2026).
pIC50: −log10 of the molar value.

Legend:
[1] = tested on: A2780 (human ovarian cancer) cells; assay: MTT cell viability assay, DOX-PhMV versus DOX; type: cell-based; details: 24 h
Method: All assays were carried out at least three times.

PhMV-derived VLPs = biological target: T1, PhMV-derived VLPs (Physalis mottle virus, UniProt P36351); details: for Number of molecules loaded per VLP: 5000-fold molar excess per particle; for Number of guest molecules loaded per VLP (affinity of the VLPs): infusion overnight at room temperature, molar excess 500 to 10,000 per VLP
T1 construct: The coat protein gene (564 bp) was inserted into the vector pRSET-A and expressed in ClearColi BL21(DE3); made in house; host or cells: E. coli ClearColi BL21(DE3)
T1 sequence (P36351 whole entry, the tested form may be a part): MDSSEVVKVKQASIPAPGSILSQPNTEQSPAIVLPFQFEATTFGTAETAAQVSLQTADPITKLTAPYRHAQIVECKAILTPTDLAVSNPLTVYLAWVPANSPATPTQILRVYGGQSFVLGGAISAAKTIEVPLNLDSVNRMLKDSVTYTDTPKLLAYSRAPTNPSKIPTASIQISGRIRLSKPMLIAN
Method: The VLPs were loaded with rhodamine B, fluorescein, crystal violet, MTX dihydrochloride (all Sigma-Aldrich), PS (cationic zinc ethynylphenyl porphyrin, full name 5-(4-ethynylphenyl)-10,15,20-tris)4-methylpyridin-4-ium-1-yl)porphyrin zinc(II) triiodide), or DOX hydrochloride (Indofine Chemical Company). The VLPs (1 mg/mL in KP buffer) were incubated with a molar excess of 500, 2500, 5000, or 10000 cargo molecules per particle overnight at room temperature in the dark, before purification over a 30% (w/v) sucrose cushion to remove excess reagents by ultracentrifugation at 52,000 rpm using a TLA 55 rotor (Beckman Coulter Inc.) at 4° C. for 1 h. PS-PhMV and DOX-PhMV were synthesized for further characterization using a 5000-fold molar excess.
A NanoDrop 2000 spectrophotometer (Thermo Fisher Scientific) was used to characterize the UV/visible spectra of native and modified VLPs. The dye load was determined using the protein concentration (measured using the Bradford assay), the Beer-Lambert law and the following dye-specific extinction coefficients: rhodamine B, F(553 nm)=116,000 M^−1 cm^−1; DOX, ε(496 nm)=11,500 M^−1 cm^−1; crystal violet, ε(590 nm)=87,000 M^−1 cm^−1; PS, ε(450 nm)=195,000 M^−1 cm^−1; MTX, ε(622 nm)=25,000 M^−1 cm^−1; sulfo-Cy5 NHS ester, ε(646 nm)=271,000 M^−1 cm^−1; Cy5.5-maleimide, 8(673 nm)=209,000 M^−1 cm^−1. The following molecular weights were used: PhMV=4.7×10^6 g mol^−1; rhodamine B=479.02 g mol^−1; DOX=579.98 g mol^−1; crystal violet=407.98 g mol^−1; PS=1130 g mol^−1; mitoxantrone=517.4 g mol^−1; Cy5=777.95 g mol^−1; Cy5.5=741.36 g mol^−1; Biotin NHS ester=341.38 g mol^−1; Biotin maleimide=451.54 g mol^−1.
Intact VLPs were incubated in a bathing solution containing the guest molecule at various molar excesses (500, 2500, 5000 and 10,000 molecules per VLP) in KP buffer with 10% (v/v) DMSO overnight at room temperature. After the reaction, excess guest molecules were removed by ultracentrifugation and the amount of protein and cargo was quantified by the Bradford assay and UV/visible spectroscopy, respectively. We applied the Beer-Lambert law and the specific extinction coefficient of each guest molecule to determine the number of cargo molecules per VLP (FIG. 5).

PC-3 cells [2] = assay: MTT cell viability assay after photodynamic therapy
Method: PC-3 cells were seeded (5000 cells/100 μL RPMI 1640/well) in a 96-well plate overnight. After two PBS washes to remove unbound and dead cells, free PS, or PS-PhMV was added to the cells in triplicate at concentrations of 0.01, 0.025, 0.05, 0.1, 0.25, 0.5, 1, 2.5 and 5.0 μM PS, and incubated for 8 h. Untreated cells and cells treated with unloaded VLPs at the equivalent protein concentration to PS-PhMV particles at the highest dose of PS were also used as controls. Free particles were washed with PBS and 100 μL of fresh medium was added. The cells were then illuminated with white light for 30 min as above. In parallel, a duplicate plate was prepared and kept in the dark as a negative control. Following phototherapy, cells were incubated for another 48 h in the dark, and their viability was subsequently measured using an MTT cell proliferation assay kit (ATCC) based on the manufacturer's instructions. A Tecan Infinite 200 PRO multimode plate reader was used to measure absorbance at 570 nm, and the percent cell viability was normalized to the untreated control. All assays were carried out at least three times.

PC-3 cells [3] = assay: LIVE/DEAD assay after photodynamic therapy; type: cell-based, human
Method: PC-3 cells were seeded (20,000 cells/500 μL RPMI/well) in a 24-well plate overnight. The cells were washed twice in PBS and incubated for 8 h in triplicates with 5.0 μM PS, 5.0 μM PS-PhMV, or the corresponding concentration of unloaded VLPs ([…] or ˜0.19 mg/mL). After washing twice in PBS, 500 μL RPMI medium was added. Photodynamic therapy was then applied using a white light source (Phillips Silhouette High Output F39T5/841 HO, Alto collection, ˜10 mW cm^−2) for 30 min (18.1 J cm^−2 at 430 nm) and cells were incubated for a further 48 h in the dark. Cell viability was determined using a LIVE/DEAD assay for mammalian cells (Thermo Fisher Scientific) following the manufacturer's procedures for cell staining, and cells were observed under a Zeiss Axio Observer Z1 motorized FL inverted microscope.

SMILES	Number of molecules loaded per VLP (PhMV-derived VLPs)	Number of guest molecules loaded per VLP (affinity of the VLPs) (PhMV-derived VLPs) [molecules per particle]	other results
COc1cccc2c1C(=O)c1c(O)c3c(c(O)c1C2=O)C[C@@](O)(C(=O)CO)C[C@@H]3O[C@H]1C[C@H](N)[C@H](O)[C@H](C)O1 [DOX, doxorubicin]	600-800 molecules per VLP	750	IC50 (MTT) [1]: equivalent
O=C1c2c(O)ccc(O)c2C(=O)c2c(NCCNCCO)ccc(NCCNCCO)c21 [MTX, mitoxantrone]	–	450	–
C#Cc1ccc(C2=C3C=CC(=N3)C(c3cc[n+](C)cc3)=c3ccc4[n]3[Zn][n]3c2ccc3C(c2cc[n+](C)cc2)=C2C=CC(=N2)C=4c2cc[n+](C)cc2)cc1.[I-].[I-].[I-] [PS]	160-180 molecules per VLP	~200	Cytotoxicity of dark controls (MTT) (PC-3 cells [2]; PC-3 cells kept in the dark): no cell killing; pIC50 (PC-3 cells [2]; read-out: IC50 (cell killing, MTT), PC-3 cells, 8 h incubation, 30 min white light illumination): 7.30; Cell viability (LIVE/DEAD), dark controls (PC-3 cells [3]; 5.0 μM, 8 h, maintained in the dark): 100%; Cell viability (LIVE/DEAD), illuminated (PC-3 cells [3]; 5.0 μM, 8 h, white light 30 min): 0%; Cytotoxicity of dark controls (LIVE/DEAD) (PC-3 cells [3]; dark controls): no cytotoxicity
CN(C)c1ccc(C(=C2C=CC(=[N+](C)C)C=C2)c2ccc(N(C)C)cc2)cc1 [crystal violet]	–	2000	–
CCN(CC)c1ccc2c(-c3ccccc3C(=O)O)c3ccc(=[N+](CC)CC)cc-3oc2c1.[Cl-] [rhodamine B]	–	~200	–
